Here are results for three compounds from patent US20250255981A1, “IMMUNOMODULATORY ANTIBODY-DRUG CONJUGATES” (Seagen Inc., priority 2022, published 2025).

The structures appear in SMILES notation.

For one series, the system named is Renca tumor-bearing mice. The series is described as follows: In vivo cytokine assay, Renca tumor-bearing mice. Also on record: species or system mouse; RANTES in plasma / TNFa in plasma: unit not given here. To be noted: for systemic pro-inflammatory cytokine (IL-6 and TNF) production: plasma; for IFNγ in plasma / IL1β in plasma / IL12p70 in plasma / IL-6 in plasma / IL-10 in plasma / IP10 in plasma / MCP-1 in plasma / MIP1α in plasma / MIP1β in plasma / RANTES in plasma / TNFa in plasma: 1.48 mg/kg. How it is done: Cytokines were measured in mouse plasma harvested at 3, 6, 24, or 48 hours after treatment with compounds or ADCs using a Milliplex MAP mouse cytokine/chemokine magnetic bead panel assay kit (MCYTOMAG-70k custom 11-plex kit: MCP1, MIP1a, MIP1(3, TNFα, IFNγ, IL-10, IL-12p70, IL-6, IL-1β, IP10, RANTES) and analyzed using a Luminex™ MAGPIX™ Instrument System. Values that were outside of the standard curve range (<3.2 or […]) were either excluded from calculation of the mean values or, when indicated, converted to […] for calculation of the mean values.
Renca cancer cells (ATCC) were cultured in RPMI-1640 (ATCC) with 10% heat-inactivated fetal bovine serum, Pen-Strep (100 U/mL-100 μg/mL), MEM non-essential amino acids (1×), sodium pyruvate (1 mM), and L-glutamine (2 mM). Renca cancer cells were implanted (2*10^6 cells in 200 μL 25% Matrigel) subcutaneously into Balb/c female mice. In some experiments, Renca tumor cells were engineered to express the indicated murine or human target antigen.
(§1) When tumor volumes reached 100 mm^3, the mice were dosed with either compounds or ADCs by intraperitoneal or intravenous injection at the indicated dosing schedule and tumor volumes were monitored twice weekly. Compounds were formulated in 40% PEG400 in saline.
(§2) A syngeneic system was used to assess the ability of the STING agonist ADCs to induce immune responses in vivo and drive an anti-tumor immune response. The Renca system is a subcutaneous, mouse renal adenocarcinoma model. Female Balb/c mice were implanted with 2×10^6 Renca cells subcutaneously in the flank on day 0. When mean tumor size of 100 mm^3 (measured by using the formula Volume (mm^3)=0.5*Length*Width^2 where length is the longer dimension) was reached mice were randomized into treatment groups of ≥5 mice per group. Animals were then treated intraperitoneally (ADCs or compounds) or intravenously (compounds) with the indicated treatment every 7 days, for 3 doses total (or as indicated). Tumor length and width and the weight of the animals was measured throughout the study and tumor volume was calculated using the formula above. Animals were followed until the tumor volume reached ˜1000 mm^3; animals were then euthanized.

Another series concerns Renca cancer cells. The series is described as follows: In vivo anti-tumor activity, Renca tumor model. To be noted: for tumor growth / anti-tumor activity: Renca, q7dx3. How it is done: In some experiments, Renca tumor cells were engineered to express the indicated murine or human target antigen.
as §1, §2

Series [1] deals with THP1-Dual™ cells (IRF-Lucia luciferase reporter). The series is described as follows: THP1-Dual™ cell reporter assay. The class given is cell-based, human. To be noted: for relative potency of free drug, Lucia reporter: 24 h (48 h elsewhere in the source). The procedure, abridged:
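THP1-Dual cells (~100,000 per well) exposed to compound or ADC in supplemented RPMI-1640 with 10% FBS; supernatant taken at 24 h for compounds or 48 h for ADCs. Secreted IRF-driven Lucia luciferase measured by luminescence with QUANTI-Luc reagent.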
For orientation: Reporter assays use an easily measured gene product as a stand-in for the process of interest.

Series [2] deals with wild type (WT) murine bone marrow-derived macrophages. The series is described as follows: Bone marrow-derived macrophage assay, wild type. In kind it is cell-based, mouse. To be noted: 24 hours. How it is done:
Potency of the compounds described herein was evaluated using mouse bone-marrow derived macrophages cultured from wild type (C57BL/6J, the Jackson Laboratory #000664) or STING-deficient (C57BL/6J-Sting1^gt/J, the Jackson Laboratory #017537) mice. Briefly, mouse bone marrow cells were cultured for 7-10 days in RPMI-1640 (Gibco) with 10% heat-inactivated fetal bovine serum, Pen-Strep (100 U/mL-100 […], Gibco), HEPES (10 mM, Gibco), sodium pyruvate (1 mM, Gibco), GlutaMAX (1×, Gibco), beta-mercaptoethanol ([…], Gibco) and 20-40 ng/mL murine M-CSF (Peprotech, #315-02). Cells were plated in a 96-well flat bottom tissue culture-treated clear polystyrene plate (Corning Costar #3596) at ˜100,000 cells per well in 200 μL with the indicated concentration of the compound. The supernatant was harvested at 24 hours and cytokines were measured using a Milliplex MAP mouse cytokine/chemokine magnetic bead panel assay kit (MCYTOMAG-70k custom 11-plex kit: MCP1, MIP1α, MIP1β, TNFα, IFNγ, IL-10, IL-12p70, IL-1β, IL-6, IP10, RANTES) and analyzed using a Luminex™ MAGPIX™ Instrument System.

The test system of the next series is CT26 cancer cells. The series is described as follows: In vivo anti-tumor activity, CT26 tumor model. The arrangement: species or system mouse. To be noted: CT26, q7dx3. Here is the method:
CT26 cancer cells (ATCC) were cultured in RPMI 1640 modified with 1 mM Sodium Pyruvate, 10 mM HEPES, 2.8 mL 45% Glucose (1.25 g) and supplemented with 10% fetal bovine serum and 1% Pen/Strep/Glutamine. CT26 cancer cells were implanted (0.5*10^6 cells in 200 uL serum-free RPMI 1640) subcutaneously into Balb/c mice.

The test system of another series is DELBVR. The series can be described thus: Cancer cell direct cytotoxicity assay, DELBVR. In kind it is cell-based, human. To be noted: 96 hours, read-out: Compound X50. Here is the method: (§3) Cancer cells were counted and plated in 40 μL complete growth media in 384-well, white-walled tissue culture treated plates (Corning). Cell plates were incubated at 37° C. and with 5% CO2 overnight to allow the cells to equilibrate. Stock solutions containing ADCs or free drugs were serially diluted in RPMI-1640+20% fetal bovine serum (FBS). 10 μL of each concentration were then added to each cell plate in duplicate. Cells were then incubated at 37° C. and with 5% CO2 for 96 hours, upon which, the cell plates were removed from the incubator and allowed to cool to room temperature for 30 minutes prior to analysis. CellTiter-Glo® luminescent assay reagent (Promega Corporation, Madison, WI) was prepared according to Promega's protocol. 10 μL of CellTiter-Glo® were added to assay plates using a Formulatrix Tempest liquid handler (Formulatrix) and the plates were protected from light for 30 minutes at room temperature. The luminescence of the samples was measured using an EnVision Multimode plate reader (Perkin Elmer, Waltham, MA). Raw data were analyzed in Graphpad Prism (San Diego, CA) using a nonlinear, 4-parameter curve fit model [Y=Bottom+(Top-Bottom)/(1+10^((Log EC50−X)*HillSlope))]. Results are reported as X50 values, which are defined as the concentration of ADC or free drug required to reduce cell viability to 50%.

The subject of a further series is BxPC3. The series can be described thus: Cancer cell direct cytotoxicity assay, BxPC3. To be noted: 96 hours, read-out: Compound X50. In kind it is cell-based, human. How it is done:
as §3

The next series relates to MDAMB231. The series can be described thus: Cancer cell direct cytotoxicity assay, MDAMB231. In kind it is cell-based, human. To be noted: 96 hours, read-out: Compound X50. How it is done: as §3
The next series concerns Karpas299. The series can be described thus: Cancer cell direct cytotoxicity assay, Karpas299. To be noted: 96 hours, read-out: Compound X50. The class given is cell-based, human. How it is done: as §3
For another series, the system named is MOLM-13. The series can be described thus: Cancer cell direct cytotoxicity assay, MOLM-13. In kind it is cell-based, human. To be noted: 96 hours, read-out: Compound X50. Here is the method: as §3
Another series relates to L540cy. The series is described as follows: Cancer cell direct cytotoxicity assay, L540cy. To be noted: 96 hours, read-out: Compound X50. The class given is cell-based, human. How it is done: as §3
The subject of another series is Ls174T. The series can be described thus: Cancer cell direct cytotoxicity assay, Ls174T. In kind it is cell-based, human. To be noted: 96 hours, read-out: Compound X50. How it is done:
as §3

A further series has as its system A2058. The series is described as follows: Cancer cell direct cytotoxicity assay, A2058. To be noted: 96 hours, read-out: Compound X50. The class given is cell-based, human. How it is done: as §3
A further series relates to 786-O. The series is described as follows: Cancer cell direct cytotoxicity assay, 786-O. To be noted: 96 hours, concentration required to reduce cell viability to 50%, read-out: Compound X50. The class given is cell-based, human. How it is done:
as §3

For a further series, the system named is DEL. The series can be described thus: Cancer cell direct cytotoxicity assay, DEL. To be noted: 96 hours, read-out: Compound X50. In kind it is cell-based, human. Here is the method:
as §3

The next series has as its system SU-DHL-4. The series is described as follows: Cancer cell direct cytotoxicity assay, SU-DHL-4. The class given is cell-based, human. To be noted: 96 hours, read-out: Compound X50. Here is the method: as §3

For the compound `CCn1nc(C)cc1C(=O)Nc1nc2cc(C(N)=O)cc(OC)c2n1C/C=C/Cn1c(NC(=O)c2cc(C)nn2CC)nc2cc(C(N)=O)cc(OCCCNC)c21` [Compound 12a], the “systemic pro-inflammatory cytokine (IL-6 and TNF) production” value in the series on Renca tumor-bearing mice was “induced robust production of IL-6 and TNF”. Also, the “tumor growth / anti-tumor activity” value in the series with Renca cancer cells was “limited anti-tumor efficacy”. For the same compound, in series [1], the “relative potency of free drug, Lucia reporter” value was “less potent than compound 1 and compound A”. In addition, the “cytokine production” value in series [2] is listed as “induced cytokine production”.

In the series on Renca tumor-bearing mice (3 h after treatment), `CCn1nc(C)cc1C(=O)Nc1nc2cc(C(N)=O)cc(O)c2n1C/C=C/Cn1c(NC(=O)c2cc(C)nn2CC)nc2cc(C(N)=O)cc(OC)c21` [compound 1, (E)-1-(4-(5-carbamoyl-2-(1-ethyl-3-methyl-1H-pyrazole-5-carboxamido)-7-hydroxy-1H-benzo[d]imidazol-1-yl)but-2-en-1-yl)-2-(1-ethyl-3-methyl-1H-pyrazole-5-carboxamido)-7-methoxy-1H-benzo[d]imidazole-5-carboxamide] yielded an IFNγ in plasma of less than 3.2 pg/mL, an IL1β in plasma of 0.7 pg/mL, an IL12p70 in plasma of 174 pg/mL and an IL-6 in plasma of 95.7 pg/mL. Moreover, in the series on Renca tumor-bearing mice (3 h after treatment), the IL-10 in plasma came to 48.8 pg/mL, the IP10 in plasma came to 703 pg/mL, the MCP-1 in plasma was 168 pg/mL and the MIP1α in plasma is 55.6 pg/mL. In the series with Renca tumor-bearing mice (3 h after treatment), this compound registered an MIP1β in plasma of 362 pg/mL, an RANTES in plasma of 10.6 and a TNFa in plasma of 3.6. Moreover, in the series with Renca tumor-bearing mice (6 h after treatment), the IFNγ in plasma came out at 0.2 pg/mL, the IL1β in plasma stood at 1.5 pg/mL, the IL12p70 in plasma was less than 3.2 pg/mL and the IL-6 in plasma was determined as 6.8 pg/mL. In the series on Renca tumor-bearing mice (6 h after treatment), this compound yielded an IL-10 in plasma of 0.8 pg/mL, an IP10 in plasma of 3390 pg/mL, an MCP-1 in plasma of 796 pg/mL and an MIP1α in plasma of 38.9 pg/mL. In the series with Renca tumor-bearing mice (6 h after treatment), this compound returned an MIP1β in plasma of 169 pg/mL, an RANTES in plasma of 18.4 and a TNFa in plasma of 1.9. Also, in the series with Renca tumor-bearing mice (24 h after treatment), the IFNγ in plasma is less than 3.2 pg/mL, the IL1β in plasma came to 0.8 pg/mL, the IL12p70 in plasma stood at 140 pg/mL and the IL-6 in plasma worked out at 13.5 pg/mL. Also, in the series on Renca tumor-bearing mice (24 h after treatment), the IL-10 in plasma was 34.6 pg/mL, the IP10 in plasma was 551 pg/mL, the MCP-1 in plasma was 333 pg/mL and the MIP1α in plasma was 69.9 pg/mL. In the series with Renca tumor-bearing mice (24 h after treatment), the MIP1β in plasma is 70.7 pg/mL, the RANTES in plasma was 15.6 and the TNFa in plasma was 2.0. Besides, the “systemic pro-inflammatory cytokine (IL-6 and TNF) production” value in the series with Renca tumor-bearing mice was “induced very little pro-inflammatory cytokine (IL-6 and TNF) production”. Also, in the series on CT26 cancer cells, the “tumor growth” value is given as “minimal tumor growth delay”. In addition, the “tumor growth / anti-tumor activity” value with Renca cancer cells was “some tumor growth delay was observed”. In addition, the average weight loss in the series with Renca cancer cells (after the 1st and 2nd dose of the treatment) is reported as less than −5%. In series [1], the “relative potency of free drug, Lucia reporter” value is “significantly more potent than (2′, 3′)-Rp,Rpc-diAMPS disodium (Compound B)”. The “cytokine production” value in series [2] is recorded as “induced cytokine production”.

For `CCn1nc(C)cc1C(=O)Nc1nc2cc(C(N)=O)cc(OC)c2n1C/C=C/Cn1c(NC(=O)c2cc(C)nn2CC)nc2cc(C(N)=O)cc(OCCCN(C)C(=O)CCN3C(=O)CC(SC[C@H](N)C(=O)O)C3=O)c21` (stereo partly shown) [compound 16], the IC50 with DELBVR was 7 nM; in the series on BxPC3, more than 1000 nM; in the series with MDAMB231, more than 1000 nM; in the series with Karpas299, more than 1000 nM; in the series on MOLM-13 it was 27 nM; with L540cy, 29 nM. Further, the IC50 is more than 1000 nM in the series on Ls174T; more than 1000 nM in the series with A2058; more than 1000 nM with 786-O; 4 nM with DEL; more than 1000 nM in the series on SU-DHL-4. Moreover, the EC50 in [1] (small molecules, 24 h, >10,000 nM = minimal activity up to 10 μM, some values average of multiple experiments, read-out: EC50, Lucia reporter signal) came to 52 nM.

For orientation: EC50 means the concentration that produces a half-maximal response.
